Measurements published in PubChem BioAssay AID330 (DTP/NCI, 2004).
Where “and” joins values, the source holds several entries; their conditions need not be identical. Identical values can stand only once. Inconclusive results and toxic doses are left out. The calls were made as follows: active = survival T/C of 150% or more; inactive = T/C below 125% in these data. Bridge positions count the residues as written; N and C are the ends. Peptide text beside a SMILES is read from it. I, II: the chains in the order shown.

Test system: P388 leukemia ip, CD2F1 mice, survival T/C
Assay: NCI In Vivo Anticancer Drug Screen. Data for tumor model P388 Leukemia (intraperitoneal) in CD2F1 (CDF1) mice
Conditions: endpoint: median survival time, higher = longer survival
In short: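 Mice carrying the transplanted tumor received test compound or vehicle. Survival was recorded in each group, and the value is the treated-group measurement divided by that of the vehicle-treated control group.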

[1] = dose: 50.0 mg/kg/injection, schedule: Q01DX005 (ip), vehicle: Klucel (hydroxypropylcellulose) (HPC)
[2] = dose: 100.0 mg/kg/injection, schedule: Q01DX005 (ip), vehicle: Klucel (hydroxypropylcellulose) (HPC)
[3] = dose: 50.0 mg/kg/injection, schedule: Q01DX009 (ip), vehicle: saline
[4] = dose: 100.0 mg/kg/injection, schedule: Q01DX009 (ip), vehicle: saline
[5] = dose: 200.0 mg/kg/injection, schedule: Q01DX009 (ip), vehicle: saline
[6] = dose: 50.0 mg/kg/injection, schedule: Q01DX005 (ip), vehicle: saline
[7] = dose: 100.0 mg/kg/injection, schedule: Q01DX005 (ip), vehicle: saline
[8] = dose: 200.0 mg/kg/injection, schedule: Q01DX005 (ip), vehicle: saline
[9] = dose: 60.0 mg/kg/injection, schedule: Q01DX005 (ip), vehicle: Klucel (hydroxypropylcellulose) (HPC)
[10] = dose: 120.0 mg/kg/injection, schedule: Q01DX005 (ip), vehicle: Klucel (hydroxypropylcellulose) (HPC)
[11] = dose: 100.0 mg/kg/injection, schedule: Q04DX003 (ip), vehicle: Klucel (hydroxypropylcellulose) (HPC)
[12] = dose: 200.0 mg/kg/injection, schedule: Q04DX003 (ip), vehicle: Klucel (hydroxypropylcellulose) (HPC)
[13] = dose: 400.0 mg/kg/injection, schedule: Q04DX003 (ip), vehicle: Klucel (hydroxypropylcellulose) (HPC)
[14] = dose: 100.0 mg/kg/injection, schedule: Q01DX009 (ip), vehicle: saline with Tween-80
[15] = dose: 12.5 mg/kg/injection, schedule: Q01DX005 (ip), vehicle: Klucel (hydroxypropylcellulose) (HPC)
[16] = dose: 25.0 mg/kg/injection, schedule: Q01DX005 (ip), vehicle: Klucel (hydroxypropylcellulose) (HPC)

Measured: T/C

CCOC(=O)C1C(=O)C(CN(CCCl)CCCl)C(=O)C(C(=O)OCC)C1c1ccc(O)cc1 (stereo unspecified)
inactive: dose: 4.6 micrograms/kg/injection, schedule: Q01DX009 (ip), vehicle: Klucel (hydroxypropylcellulose) (HPC) 104 % of control | dose: 9.0 micrograms/kg/injection, schedule: Q01DX009 (ip), vehicle: Klucel (hydroxypropylcellulose) (HPC) 109 % of control | dose: 18.7 micrograms/kg/injection, schedule: Q01DX009 (ip), vehicle: Klucel (hydroxypropylcellulose) (HPC) 109 % of control | dose: 37.5 micrograms/kg/injection, schedule: Q01DX009 (ip), vehicle: Klucel (hydroxypropylcellulose) (HPC) 116 % of control

CC(C)C(NC(=O)C(N)CSSCC(N)C(=O)NC(C(=O)O)C(C)C)C(=O)O (stereo not drawn) (I: H-Cys-Val-OH / II: H-Cys-Val-OH; disulfide I:1-II:1; configuration not given here)
inactive: [1] 103 % of control | [2] 103 % of control | dose: 200.0 mg/kg/injection, schedule: Q01DX005 (ip), vehicle: Klucel (hydroxypropylcellulose) (HPC) 101 % of control

OC1CCC2CC2C1 (stereo unspecified)
inactive: [3] 108 % of control | [4] 102 % of control | [5] 108 % of control

CCN(CC)CCCC(C)Nc1nc(-c2ccccc2)nc2ccccc12 (stereo unspecified)
inactive: [6] 99 % of control | [7] 101 % of control | [8] 110 % of control

CC(=O)O.[Bi]
inactive: [9] 97 % of control | [10] 96 % of control | dose: 240.0 mg/kg/injection, schedule: Q01DX005 (ip), vehicle: Klucel (hydroxypropylcellulose) (HPC) 99 % of control

CCOC(=O)/C=C(\C(=O)OCC)N(O)C(=O)CN1C(=O)c2ccccc2C1=O
inactive: dose: 50.0 mg/kg/injection, schedule: Q01DX001 (ip), vehicle: saline with Tween-80 106 % of control | dose: 100.0 mg/kg/injection, schedule: Q01DX001 (ip), vehicle: saline with Tween-80 105 % of control | dose: 200.0 mg/kg/injection, schedule: Q01DX001 (ip), vehicle: saline with Tween-80 98 % of control | dose: 400.0 mg/kg/injection, schedule: Q01DX001 (ip), vehicle: saline with Tween-80 93 % of control

CC(=O)C[n+]1ccccc1-c1ccccc1C
inactive: dose: 50.0 mg/kg/injection, schedule: Q01DX005 (ip), vehicle: saline with Tween-80 103 % of control

NC(=S)c1cccc(/C=N/Nc2ccccc2)n1
inactive: [11] 101 % of control | [12] 99 % of control | [13] 97 % of control

CN=C(NC)Nc1nc(-c2ccccc2)c(-c2ccccc2)[nH]1
inactive: dose: 12.5 mg/kg/injection, schedule: Q04DX002 (ip), vehicle: saline with Tween-80 105 % of control | dose: 25.0 mg/kg/injection, schedule: Q04DX002 (ip), vehicle: saline with Tween-80 100 % of control | dose: 50.0 mg/kg/injection, schedule: Q04DX002 (ip), vehicle: saline with Tween-80 107 % of control

CN1c2ccccc2S(=O)(=O)n2c(Cc3ccccc3)nnc21
inactive: dose: 100.0 mg/kg/injection, schedule: Q04DX002 (ip), vehicle: saline with Tween-80 92 % of control | dose: 200.0 mg/kg/injection, schedule: Q04DX002 (ip), vehicle: saline with Tween-80 90 % of control | dose: 400.0 mg/kg/injection, schedule: Q04DX002 (ip), vehicle: saline with Tween-80 90 % of control

O=C(O)c1ccc(S(=O)(=O)F)c(Cl)c1
inactive: dose: 60.0 mg/kg/injection, schedule: Q01DX005 (ip), vehicle: saline with Tween-80 120 % of control | dose: 120.0 mg/kg/injection, schedule: Q01DX005 (ip), vehicle: saline with Tween-80 119 % of control | dose: 240.0 mg/kg/injection, schedule: Q01DX005 (ip), vehicle: saline with Tween-80 121 % of control

Cn1c[n+](C2OC(CO)C(O)C2O)c2nc(N)[nH]c(=O)c21 (stereo unspecified)
inactive: [6] 119 % of control | [7] 105 % of control | [8] 115 % of control

CC1=CC(=O)C2C(CC1)C2(C)C (stereo unspecified)
inactive: dose: 100.0 mg/kg/injection, schedule: Q04DX003 (ip), vehicle: saline + Tween-80 + alcohol 102 % of control | dose: 200.0 mg/kg/injection, schedule: Q04DX003 (ip), vehicle: saline + Tween-80 + alcohol 95 % of control | dose: 400.0 mg/kg/injection, schedule: Q04DX003 (ip), vehicle: saline + Tween-80 + alcohol 91 % of control

c1ccc2c(SCCCCSc3c4ccccc4nc4ccccc34)c3ccccc3nc2c1
inactive: dose: 60.0 mg/kg/injection, schedule: Q01DX005 (ip), vehicle: saline 113 % of control | dose: 120.0 mg/kg/injection, schedule: Q01DX005 (ip), vehicle: saline 98 % of control | dose: 240.0 mg/kg/injection, schedule: Q01DX005 (ip), vehicle: saline 89 % of control

C=C1C(NC)CCC23CC24CCC2(C)C(C(C)=O)C(O)CC2(C)C4CCC13 (stereo unspecified)
inactive: dose: 50.0 mg/kg/injection, schedule: Q01DX009 (ip), vehicle: saline with Tween-80 92 % of control | [14] 96 % of control

CC(C)(C)C(CO)CNc1ccccc1 (stereo unspecified)
inactive: dose: 50.0 mg/kg/injection, schedule: Q01DX009 (ip), vehicle: Klucel (hydroxypropylcellulose) (HPC) 110 % of control | dose: 100.0 mg/kg/injection, schedule: Q01DX009 (ip), vehicle: Klucel (hydroxypropylcellulose) (HPC) 110 % of control | dose: 200.0 mg/kg/injection, schedule: Q01DX009 (ip), vehicle: Klucel (hydroxypropylcellulose) (HPC) 107 % of control

CC(C)N(C(C)C)P1(=NC(C)(C)C)N(C(C)(C)C)P(=NC(C)(C)C)(N(C(C)C)C(C)C)N1C(C)(C)C (stereo unspecified)
inactive: [15] 107 % of control | [16] 104 % of control | [1] 100 % of control and 102 % of control | [2] 102 % of control

[N-]=[N+]=NC1(c2ccccc2)C(=O)c2ccccc2C1=O
inactive: dose: 100.0 mg/kg/injection, schedule: Q04DX003 (ip), vehicle: saline with Tween-80 94 % of control | dose: 200.0 mg/kg/injection, schedule: Q04DX003 (ip), vehicle: saline with Tween-80 105 % of control

O=C(CCl)NN=C1C2CC3CC(C2)CC1C3
inactive: [14] 113 % of control

CC(=O)O.CC(=O)O.CC(=O)O.CC(=O)O.[Cu].[Cu]
inactive: dose: 6.25 mg/kg/injection, schedule: Q04DX002 (ip), vehicle: Klucel (hydroxypropylcellulose) (HPC) 91 % of control | dose: 12.5 mg/kg/injection, schedule: Q04DX002 (ip), vehicle: Klucel (hydroxypropylcellulose) (HPC) 100 % of control

O=C(O)c1cc(O)c(O)c(O)c1
inactive: dose: 14.0 mg/kg/injection, schedule: Q01DX009 (ip), vehicle: saline 105 % of control | dose: 22.0 mg/kg/injection, schedule: Q01DX009 (ip), vehicle: saline 100 % of control | dose: 35.0 mg/kg/injection, schedule: Q01DX009 (ip), vehicle: saline 95 % of control | [3] 103 % of control and 97 % of control | [4] 100 % of control and 101 % of control | dose: 100.0 mg/kg/injection, schedule: Q01DX009 (ip), vehicle: water 95 % of control | [11] 100 % of control | [5] 118 % of control and 96 % of control | dose: 200.0 mg/kg/injection, schedule: Q01DX009 (ip), vehicle: water 95 % of control | [12] 100 % of control | dose: 400.0 mg/kg/injection, schedule: Q01DX009 (ip), vehicle: saline 106 % of control and 111 % of control | dose: 400.0 mg/kg/injection, schedule: Q01DX009 (ip), vehicle: water 100 % of control | [13] 95 % of control | dose: 600.0 mg/kg/injection, schedule: Q01DX009 (ip), vehicle: saline 110 % of control and 111 % of control

CC(C)(CCC(C)(C)NCCCN)NCCCN
inactive: dose: 3.13 mg/kg/injection, schedule: Q01DX009 (ip), vehicle: water 115 % of control | dose: 6.25 mg/kg/injection, schedule: Q01DX009 (ip), vehicle: water 112 % of control | dose: 12.5 mg/kg/injection, schedule: Q01DX009 (ip), vehicle: water 102 % of control | dose: 25.0 mg/kg/injection, schedule: Q01DX009 (ip), vehicle: water 103 % of control | dose: 50.0 mg/kg/injection, schedule: Q01DX009 (ip), vehicle: water 97 % of control

O=c1[nH]c2c([N+](=O)[O-])cc(Cl)cc2nc1/C=C(\O)c1ccccc1
inactive: [9] 105 % of control | [10] 106 % of control

S=c1cc(S)sc2c1c(=S)sc1nc3ccccn3c(=S)c12
inactive: [15] 96 % of control | [16] 99 % of control and 98 % of control | [1] 96 % of control | [2] 107 % of control and 94 % of control
